According to ChEMBL document CHEMBL1154224, “Spiropiperidine CCR5 antagonists” (Bioorg Med Chem Lett, 2009):

How the values were obtained:
[1] = Oral bioavailability in rat at 1 mg/kg, po; type: ADME, organism-based; conditions: in vivo
[2] = Cmax in cynomolgus monkey at 1 mg/kg, po; type: ADME, organism-based, Macaca fascicularis; parameters: dose 1 mg/kg, route oral; conditions: in vivo
hERG (KCNH2) = hERG (KCNH2) (Homo sapiens, UniProt Q12809); assay: (§1) Inhibition of human ERG; conditions: human
Sequence of hERG (KCNH2) (Q12809 whole entry): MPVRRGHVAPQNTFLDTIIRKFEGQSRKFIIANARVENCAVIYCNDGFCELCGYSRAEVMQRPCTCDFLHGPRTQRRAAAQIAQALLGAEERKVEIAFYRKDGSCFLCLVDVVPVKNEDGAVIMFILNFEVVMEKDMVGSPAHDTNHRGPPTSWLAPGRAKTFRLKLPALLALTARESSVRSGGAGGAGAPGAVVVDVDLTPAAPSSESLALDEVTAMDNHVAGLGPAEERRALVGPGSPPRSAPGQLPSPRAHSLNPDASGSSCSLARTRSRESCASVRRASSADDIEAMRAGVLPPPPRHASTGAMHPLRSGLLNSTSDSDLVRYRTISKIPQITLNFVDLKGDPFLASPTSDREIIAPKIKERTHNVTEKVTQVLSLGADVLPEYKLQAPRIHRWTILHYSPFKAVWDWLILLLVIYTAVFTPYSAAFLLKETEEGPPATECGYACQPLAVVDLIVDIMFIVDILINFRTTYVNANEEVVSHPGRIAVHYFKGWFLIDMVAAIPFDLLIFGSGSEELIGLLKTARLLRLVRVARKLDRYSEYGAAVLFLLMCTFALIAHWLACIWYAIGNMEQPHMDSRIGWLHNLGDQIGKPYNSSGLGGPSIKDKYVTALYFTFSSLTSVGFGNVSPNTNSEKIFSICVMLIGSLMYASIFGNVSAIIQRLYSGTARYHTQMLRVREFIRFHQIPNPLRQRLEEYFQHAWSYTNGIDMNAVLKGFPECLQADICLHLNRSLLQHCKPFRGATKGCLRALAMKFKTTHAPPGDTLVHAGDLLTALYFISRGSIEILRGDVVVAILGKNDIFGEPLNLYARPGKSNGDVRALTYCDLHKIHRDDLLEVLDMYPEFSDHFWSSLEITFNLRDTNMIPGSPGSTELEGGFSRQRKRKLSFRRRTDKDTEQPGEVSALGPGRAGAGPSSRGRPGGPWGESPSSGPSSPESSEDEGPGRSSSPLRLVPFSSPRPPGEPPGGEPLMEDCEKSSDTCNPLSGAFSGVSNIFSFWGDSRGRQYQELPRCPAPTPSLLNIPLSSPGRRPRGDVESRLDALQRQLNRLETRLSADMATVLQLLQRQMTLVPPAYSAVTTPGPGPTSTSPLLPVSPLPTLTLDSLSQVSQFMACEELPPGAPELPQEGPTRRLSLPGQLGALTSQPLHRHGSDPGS

[3] = target: Voltage-gated inwardly rectifying potassium channel KCNH2 (Homo sapiens, UniProt Q12809); assay: as §1
Sequence of Voltage-gated inwardly rectifying potassium channel KCNH2 (Q12809 whole entry): as above

Cytochrome P450 1A2 = target: T1, Cytochrome P450 1A2 (Homo sapiens, UniProt P05177); assay: Inhibition of liver CYP1A2; type: ADME, tissue-based
T1 sequence (P05177 whole entry): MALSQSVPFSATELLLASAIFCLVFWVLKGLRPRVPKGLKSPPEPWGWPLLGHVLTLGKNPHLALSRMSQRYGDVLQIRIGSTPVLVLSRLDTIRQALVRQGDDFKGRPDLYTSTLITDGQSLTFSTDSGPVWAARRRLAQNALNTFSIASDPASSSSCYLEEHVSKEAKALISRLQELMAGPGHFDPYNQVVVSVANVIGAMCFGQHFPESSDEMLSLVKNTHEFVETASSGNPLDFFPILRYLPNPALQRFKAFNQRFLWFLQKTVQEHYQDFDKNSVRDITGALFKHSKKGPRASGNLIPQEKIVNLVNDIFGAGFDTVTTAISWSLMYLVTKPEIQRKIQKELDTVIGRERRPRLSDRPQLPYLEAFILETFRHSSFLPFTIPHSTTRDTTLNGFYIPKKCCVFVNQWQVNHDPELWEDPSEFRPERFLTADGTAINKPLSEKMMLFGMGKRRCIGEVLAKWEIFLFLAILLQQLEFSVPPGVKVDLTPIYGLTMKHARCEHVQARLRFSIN

[4] = Half life in cynomolgus monkey at 1 mg/kg, iv; type: ADME, organism-based, Macaca fascicularis; parameters: dose 1 mg/kg, route intravenous; conditions: in vivo
[5] = Fraction unbound in dog plasma; type: ADME, cell-free, Canis lupus familiaris
[6] = Half life in dog at 1 mg/kg, iv; type: ADME, organism-based, Canis lupus familiaris; parameters: dose 1 mg/kg, route intravenous; conditions: in vivo
[7] = Fraction unbound in monkey plasma; type: ADME, cell-free, Macaca mulatta; conditions: rhesus monkey
[8] = test system: Human immunodeficiency virus 1; assay: Antiviral activity against recombinant HIV1 virus infected in human JC53BL cells after 3 days; type: functional, organism-based; conditions: Human immunodeficiency virus 1, JC53BL, 72 h
[9] = Volume of distribution at steady state in dog at 1 mg/kg, iv; type: ADME, organism-based, Canis lupus familiaris; parameters: dose 1 mg/kg, route intravenous; conditions: in vivo, read-out: Vdss
Cytochrome P450 2C9 = Cytochrome P450 2C9 (Homo sapiens, UniProt P11712); assay: Inhibition of liver CYP2C9; type: ADME, tissue-based
Sequence of Cytochrome P450 2C9 (P11712 whole entry): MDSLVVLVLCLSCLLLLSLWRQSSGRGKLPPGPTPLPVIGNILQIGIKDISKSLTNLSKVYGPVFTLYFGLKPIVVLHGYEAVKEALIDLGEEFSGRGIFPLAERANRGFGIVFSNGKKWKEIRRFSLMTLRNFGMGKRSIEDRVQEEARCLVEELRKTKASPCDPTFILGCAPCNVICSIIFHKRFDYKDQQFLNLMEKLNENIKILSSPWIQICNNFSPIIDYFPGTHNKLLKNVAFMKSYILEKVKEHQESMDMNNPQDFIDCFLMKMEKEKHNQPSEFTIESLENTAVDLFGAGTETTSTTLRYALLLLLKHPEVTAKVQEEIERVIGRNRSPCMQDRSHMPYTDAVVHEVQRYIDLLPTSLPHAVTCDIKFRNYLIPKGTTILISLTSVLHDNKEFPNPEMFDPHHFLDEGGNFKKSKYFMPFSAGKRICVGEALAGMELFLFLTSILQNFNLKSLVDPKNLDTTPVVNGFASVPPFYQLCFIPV

[10] = Oral bioavailability in dog at 1 mg/kg, po; type: ADME, organism-based, Canis lupus familiaris; conditions: in vivo
[11] = target: T2, C-C chemokine receptor type 1 (Homo sapiens, UniProt P32246); assay: Binding affinity to human CCR1 receptor
T2 sequence (P32246 whole entry): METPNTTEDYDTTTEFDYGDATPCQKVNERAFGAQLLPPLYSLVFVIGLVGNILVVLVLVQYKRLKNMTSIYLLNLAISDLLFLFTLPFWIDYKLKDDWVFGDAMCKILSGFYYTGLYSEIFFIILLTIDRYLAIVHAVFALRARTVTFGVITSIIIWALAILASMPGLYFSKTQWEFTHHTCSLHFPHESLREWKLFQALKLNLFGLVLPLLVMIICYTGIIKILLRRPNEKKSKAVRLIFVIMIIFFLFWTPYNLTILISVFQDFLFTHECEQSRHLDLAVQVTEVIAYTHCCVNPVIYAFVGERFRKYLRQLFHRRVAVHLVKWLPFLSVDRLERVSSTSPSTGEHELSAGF

Cytochrome P450 2C19 = Cytochrome P450 2C19 (Homo sapiens, UniProt P33261); assay: Inhibition of liver CYP2C19; type: ADME, tissue-based
[12] = target: C-C chemokine receptor type 5 (Homo sapiens, UniProt P51681); assay: Displacement of [125I]RANTES from human CCR5 receptor co-transfected with Galphai6 in CHO cells; type: cell-based
Sequence of C-C chemokine receptor type 5 (P51681 whole entry): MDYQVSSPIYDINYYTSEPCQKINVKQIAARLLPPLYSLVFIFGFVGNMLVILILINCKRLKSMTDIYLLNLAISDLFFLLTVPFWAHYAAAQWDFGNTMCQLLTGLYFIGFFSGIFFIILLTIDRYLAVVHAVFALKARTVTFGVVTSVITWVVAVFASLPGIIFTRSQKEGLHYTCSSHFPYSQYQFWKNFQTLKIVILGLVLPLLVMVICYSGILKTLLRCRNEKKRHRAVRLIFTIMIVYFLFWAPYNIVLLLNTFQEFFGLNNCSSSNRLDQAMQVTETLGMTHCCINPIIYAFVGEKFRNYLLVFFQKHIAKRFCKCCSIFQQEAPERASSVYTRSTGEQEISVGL

[13] = Clearance in rat at 1 mg/kg, iv; type: ADME, organism-based; parameters: dose 1 mg/kg, route intravenous; conditions: in vivo
[14] = Half life in rat at 1 mg/kg, iv; type: ADME, organism-based; parameters: dose 1 mg/kg, route intravenous; conditions: in vivo
[15] = Clearance in cynomolgus monkey at 1 mg/kg, iv; type: ADME, organism-based, Macaca fascicularis; parameters: dose 1 mg/kg, route intravenous; conditions: in vivo
[16] = Oral bioavailability in cynomolgus monkey at 1 mg/kg, po; type: ADME, organism-based, Macaca fascicularis; conditions: in vivo
[17] = AUC in rat at 1 mg/kg, po; type: ADME, organism-based; parameters: dose 1 mg/kg, route oral; conditions: plasma
[18] = Fraction unbound in rat plasma; type: ADME, cell-free
[19] = Volume of distribution at steady state in cynomolgus monkey at 1 mg/kg, iv; type: ADME, organism-based, Macaca fascicularis; parameters: dose 1 mg/kg, route intravenous; conditions: in vivo, read-out: Vdss
[20] = AUC in dog at 1 mg/kg, po; type: ADME, organism-based, Canis lupus familiaris; parameters: dose 1 mg/kg, route oral; conditions: plasma
[21] = Cmax in dog at 1 mg/kg, po; type: ADME, organism-based, Canis lupus familiaris; parameters: dose 1 mg/kg, route oral; conditions: in vivo
[22] = Cmax in rat at 1 mg/kg, po; type: ADME, organism-based; parameters: dose 1 mg/kg, route oral; conditions: in vivo
[23] = test system: Human immunodeficiency virus; assay: Antiviral activity against R5-tropic HIV Ba-L infected in human PBMC cells assessed as inhibition of viral replication; type: functional, organism-based; conditions: Human immunodeficiency virus 1, Ba-L
[24] = target: T3, C-C chemokine receptor type 3 (Homo sapiens, UniProt P51677); assay: Binding affinity to human CCR3 receptor
T3 sequence (P51677 whole entry): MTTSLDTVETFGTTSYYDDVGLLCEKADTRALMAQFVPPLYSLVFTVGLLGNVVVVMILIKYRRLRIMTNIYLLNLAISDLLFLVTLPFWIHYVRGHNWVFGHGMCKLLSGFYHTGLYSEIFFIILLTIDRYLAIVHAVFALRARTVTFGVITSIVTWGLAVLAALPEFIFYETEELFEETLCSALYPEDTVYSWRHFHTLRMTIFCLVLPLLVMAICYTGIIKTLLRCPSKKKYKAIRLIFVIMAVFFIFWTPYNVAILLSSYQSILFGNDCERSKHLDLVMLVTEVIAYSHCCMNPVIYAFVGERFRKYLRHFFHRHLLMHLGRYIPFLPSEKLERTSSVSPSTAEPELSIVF

Cytochrome P450 3A4 = Cytochrome P450 3A4 (Homo sapiens, UniProt P08684); assay: Inhibition of liver CYP3A4; type: ADME, tissue-based
Sequence of Cytochrome P450 3A4 (P08684 whole entry): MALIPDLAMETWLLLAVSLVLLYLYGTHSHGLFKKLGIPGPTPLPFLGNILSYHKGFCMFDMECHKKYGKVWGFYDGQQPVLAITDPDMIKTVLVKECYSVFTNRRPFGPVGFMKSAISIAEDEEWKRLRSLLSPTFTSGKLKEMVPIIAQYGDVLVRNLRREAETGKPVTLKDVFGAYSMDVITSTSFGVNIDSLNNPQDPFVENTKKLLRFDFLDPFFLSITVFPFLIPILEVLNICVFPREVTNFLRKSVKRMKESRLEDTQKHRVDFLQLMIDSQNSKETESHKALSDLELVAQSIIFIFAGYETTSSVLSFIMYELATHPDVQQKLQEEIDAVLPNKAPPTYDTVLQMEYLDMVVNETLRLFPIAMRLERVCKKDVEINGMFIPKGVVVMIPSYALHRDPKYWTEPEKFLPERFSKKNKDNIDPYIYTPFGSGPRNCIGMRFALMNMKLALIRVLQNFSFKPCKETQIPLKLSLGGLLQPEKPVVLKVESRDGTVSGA

Cytochrome P450 2D6 = Cytochrome P450 2D6 (Homo sapiens, UniProt P10635); assay: Inhibition of liver CYP2D6; type: ADME, tissue-based
Sequence of Cytochrome P450 2D6 (P10635 whole entry): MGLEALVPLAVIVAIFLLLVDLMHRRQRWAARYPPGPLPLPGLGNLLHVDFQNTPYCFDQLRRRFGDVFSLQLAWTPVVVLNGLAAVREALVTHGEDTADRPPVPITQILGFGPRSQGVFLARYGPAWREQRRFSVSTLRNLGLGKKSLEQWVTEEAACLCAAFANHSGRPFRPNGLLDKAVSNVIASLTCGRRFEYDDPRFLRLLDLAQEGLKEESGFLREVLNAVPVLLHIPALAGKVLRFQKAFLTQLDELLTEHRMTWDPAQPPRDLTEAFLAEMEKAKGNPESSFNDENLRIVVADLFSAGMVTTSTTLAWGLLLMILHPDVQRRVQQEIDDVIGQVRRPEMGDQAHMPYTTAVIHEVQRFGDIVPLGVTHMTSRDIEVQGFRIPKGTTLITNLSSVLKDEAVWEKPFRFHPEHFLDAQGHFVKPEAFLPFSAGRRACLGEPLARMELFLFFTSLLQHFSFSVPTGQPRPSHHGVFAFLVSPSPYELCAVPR

[25] = target: C-C chemokine receptor type 2 (Homo sapiens, UniProt P41597); assay: Binding affinity to human CCR2b receptor
Sequence of C-C chemokine receptor type 2 (P41597 whole entry): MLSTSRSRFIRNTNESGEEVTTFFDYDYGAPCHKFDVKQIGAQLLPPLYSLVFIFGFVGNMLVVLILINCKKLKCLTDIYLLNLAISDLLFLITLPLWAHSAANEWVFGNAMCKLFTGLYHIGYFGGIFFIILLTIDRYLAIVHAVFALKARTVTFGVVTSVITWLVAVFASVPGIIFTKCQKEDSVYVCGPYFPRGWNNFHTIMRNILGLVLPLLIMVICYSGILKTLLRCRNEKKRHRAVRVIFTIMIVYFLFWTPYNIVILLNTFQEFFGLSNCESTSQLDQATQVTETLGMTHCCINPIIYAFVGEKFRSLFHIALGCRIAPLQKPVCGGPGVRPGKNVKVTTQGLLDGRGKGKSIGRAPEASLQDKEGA

[26] = Volume of distribution at steady state in rat at 1 mg/kg, iv; type: ADME, organism-based; parameters: dose 1 mg/kg, route intravenous; conditions: in vivo, read-out: Vdss
[27] = AUC in cynomolgus monkey at 1 mg/kg, po; type: ADME, organism-based, Macaca fascicularis; parameters: dose 1 mg/kg, route oral; conditions: plasma
Canis familiaris = assay: Clearance in dog at 1 mg/kg, iv; type: ADME, organism-based, Canis lupus familiaris; parameters: dose 1 mg/kg, route intravenous; conditions: in vivo
[28] = target: T4, C-C chemokine receptor type 6 (Homo sapiens, UniProt P51684); assay: Binding affinity to human CCR6 receptor
T4 sequence (P51684 whole entry): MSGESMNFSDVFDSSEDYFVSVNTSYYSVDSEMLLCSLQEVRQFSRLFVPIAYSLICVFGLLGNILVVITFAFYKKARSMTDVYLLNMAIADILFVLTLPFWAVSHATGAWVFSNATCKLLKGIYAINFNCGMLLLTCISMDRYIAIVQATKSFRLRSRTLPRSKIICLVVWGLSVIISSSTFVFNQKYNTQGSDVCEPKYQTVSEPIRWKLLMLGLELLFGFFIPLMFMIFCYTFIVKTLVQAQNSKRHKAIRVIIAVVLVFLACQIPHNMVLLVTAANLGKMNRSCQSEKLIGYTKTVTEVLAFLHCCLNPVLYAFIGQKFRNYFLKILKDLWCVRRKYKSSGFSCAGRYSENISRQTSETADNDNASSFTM

[29] = target: T5, C-C chemokine receptor type 4 (Homo sapiens, UniProt P51679); assay: Binding affinity to human CCR4 receptor
T5 sequence (P51679 whole entry): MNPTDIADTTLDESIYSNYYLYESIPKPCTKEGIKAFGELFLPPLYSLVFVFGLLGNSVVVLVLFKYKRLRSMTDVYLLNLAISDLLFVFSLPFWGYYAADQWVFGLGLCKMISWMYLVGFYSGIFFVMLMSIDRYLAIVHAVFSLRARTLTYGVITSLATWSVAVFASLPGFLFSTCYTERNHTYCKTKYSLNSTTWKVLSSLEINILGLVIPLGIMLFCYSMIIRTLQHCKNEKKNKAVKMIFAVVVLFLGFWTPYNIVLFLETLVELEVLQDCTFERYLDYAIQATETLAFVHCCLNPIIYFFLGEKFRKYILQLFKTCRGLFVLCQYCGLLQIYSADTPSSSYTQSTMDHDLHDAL

[30] = target: C-X-C chemokine receptor type 4 (Homo sapiens, UniProt P61073); assay: Binding affinity to human CXCR4
Sequence of C-X-C chemokine receptor type 4 (P61073 whole entry): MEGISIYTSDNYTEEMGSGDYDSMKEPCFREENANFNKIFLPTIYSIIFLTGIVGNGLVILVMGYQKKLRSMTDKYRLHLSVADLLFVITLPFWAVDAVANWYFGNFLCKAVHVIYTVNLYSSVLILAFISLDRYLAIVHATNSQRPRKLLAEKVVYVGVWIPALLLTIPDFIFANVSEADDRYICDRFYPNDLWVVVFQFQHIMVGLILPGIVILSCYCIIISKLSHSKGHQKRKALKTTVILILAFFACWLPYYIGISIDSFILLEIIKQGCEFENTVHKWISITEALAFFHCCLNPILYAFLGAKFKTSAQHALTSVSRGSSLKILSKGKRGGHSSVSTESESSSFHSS

[31] = Intrinsic clearance in human liver microsomes assessed per mg of protein; type: ADME, Microsome; conditions: liver microsomes

CCCC[C@H]1CN(CC2CCOCC2)C(=O)OC12CCN(C1(C)CCN(C(=O)c3c(C)ncnc3C)CC1)CC2
bioavailability [1]: 10%
Cmax [2]: 42 ng/mL
IC20 (hERG (KCNH2)): 2.9 µM
IC50 [3]: 11.9 µM
Activity (Cytochrome P450 1A2): Not Active
half-life [4]: 3.5 h
fraction unbound [5]: 0.13
half-life [6]: 2.9 h
fraction unbound [7]: 0.04
IC50 [8]: 0.006 µM
Vd [9]: 3.2 L/kg
Activity (Cytochrome P450 2C9): Not Active
bioavailability [10]: 85%
IC50 [11]: > 50 µM
Activity (Cytochrome P450 2C19): Not Active
IC50 [12]: 0.025 µM
clearance [13]: 52 mL/min/kg
half-life [14]: 1.4 h
clearance [15]: 19 mL/min/kg
bioavailability [16]: 42%
AUC [17]: 54 ng·h/mL
fraction unbound [18]: 0.32
Vd [19]: 3 L/kg
AUC [20]: 700 ng·h/mL
Cmax [21]: 225 ng/mL
Cmax [22]: 13 ng/mL
IC50 [23]: 0.00018 µM
IC50 [24]: > 50 µM
Activity (Cytochrome P450 3A4): Not Active
Activity (Cytochrome P450 2D6): Not Active
IC50 [25]: > 50 µM
Vd [26]: 3.8 L/kg
AUC [27]: 396 ng·h/mL
clearance (Canis familiaris): 20 mL/min/kg
IC50 [28]: > 50 µM
IC50 [29]: > 50 µM
IC50 [30]: > 50 µM
microsomal CLint [31]: 12 µL/min/mg
